Measured values from patent US20080070949A1, “POLYMORPHS OF RIMONABANT” (Cipla Limited, priority 2006, published 2008).

What was measured:
Assay type in all cases: physicochemical
[1] = Accelerated stability testing; conditions: 40±2° C., 75±5% relative humidity
Method: (§1) Long term and accelerated stability testing was carried out on crystalline rimonabant Form C.
(§2) Each sample was hermetically sealed in double HMHDPE bags and placed in fibre drum. Quantity of sample=0.8 gm per analysis. Storage conditions (long term)=30±2C., 65±5% relative humidity. Storage conditions (accelerated)=40±2° C., 75±5% relative humidity.

[2] = Long term stability testing; conditions: 30±2C., 65±5% relative humidity
Method: as §1, §2

[3] = Comparative intrinsic dissolution study (HPLC-UV method); conditions: 900 ml of 1% Sodium Lauryl Sulphate in 0.05 M NaH2PO4 buffer pH 6.6, 50 RPM, 37° C.
Method: Intrinsic dissolution was studied using an HPLC-UV method with the following parameters:
Dissolution media:—900 ml of 1% Sodium Lauryl Sulphate (SLS) in buffer.
Buffer: 0.05 M NaH2PO4 pH 6.6 with NaOH
Mobile Phase:Buffer:Acetonitrile 30:70 Buffer 0.02 M NaH2PO4 0.1% Triethylamine pH 2.5 with phosphoric acid.
Column: YMC Pack Pro 18 15 cm.
Pressure applied for preparation of pellet=2.5 tonns for 5 mins.
Filter=Whatman 0.45 micron.
The results of the intrinsic dissolution study are illustrated in the graph in FIG. 5.

[4] = initially, at 1 month, at 2 months and at 3 months

SMILES: Cc1c(C(=O)NN2CCCCC2)nn(-c2ccc(Cl)cc2Cl)c1-c1ccc(Cl)cc1 [Form C, N-piperidino-5-(4-chlorophenyl)-1-(2,4-dichlorophenyl)-4-methyl-3-pyrazolecarboxamide]
- Assay (98.0%–102.0% w/w) ([1]; 1 Month): 101.36 % w/w
- Chromatographic purity by HPLC Individual impurity NMT 0.10% ([1]; 1 Month): 0.08%
- Chromatographic purity by HPLC Total impurities NMT 1.00% ([1]; 1 Month): 0.16%
- Water Content (By KF) NMT 5.0% w/w ([1]; 1 Month): 3.94 % w/w
- Assay (98.0%–102.0% w/w) ([1]; 2 Months): 100.67 % w/w
- Chromatographic purity by HPLC Individual impurity NMT 0.10% ([1]; 2 Months): 0.08%
- Chromatographic purity by HPLC Total impurities NMT 1.00% ([1]; 2 Months): 0.21%
- Water Content (By KF) NMT 5.0% w/w ([1]; 2 Months): 4.27 % w/w
- Assay (98.0%–102.0% w/w) ([1]; 3 Months): 99.45 % w/w
- Chromatographic purity by HPLC Individual impurity NMT 0.10% ([1]; 3 Months): 0.08%
- Chromatographic purity by HPLC Total impurities NMT 1.00% ([1]; 3 Months): 0.20%
- Water Content (By KF) NMT 5.0% w/w ([1]; 3 Months): 4.07 % w/w
- Assay (98.0%–102.0% w/w) ([1]; Initial): 99.86 % w/w
- Chromatographic purity by HPLC Individual impurity NMT 0.10% ([1]; Initial): 0.08%
- Chromatographic purity by HPLC Total impurities NMT 1.00% ([1]; Initial): 0.20%
- Water Content (By KF) NMT 5.0% w/w ([1]; Initial): 3.08 % w/w
- description of sample [1, 4]: white colour powder
- polymorphic identity confirmed by XRPD, IR and DSC [1, 4]: Form C
- Assay (98.0%–102.0% w/w) ([2]; Initial): 99.86 % w/w
- Chromatographic purity by HPLC Individual impurity NMT 0.10% ([2]; Initial): 0.08%
- Chromatographic purity by HPLC Total impurities NMT 1.00% ([2]; Initial): 0.20%
- Water Content (By KF) NMT 5.0% w/w ([2]; Initial): 3.08 % w/w
- description of sample ([2]; initially and at 3 months): white colour powder
- polymorphic identity confirmed by XRPD, IR and DSC ([2]; initially and at 3 months): Form C
- Assay (98.0%–102.0% w/w) ([2]; period of keeping (3 months)): 99.13 % w/w
- Chromatographic purity by HPLC Individual impurity NMT 0.10% ([2]; period of keeping (3 months)): 0.08%
- Chromatographic purity by HPLC Total impurities NMT 1.00% ([2]; period of keeping (3 months)): 0.20%
- Remarks ([2]; period of keeping (3 months)): Product is stable
- Water Content (By KF) NMT 5.0% w/w ([2]; period of keeping (3 months)): 3.08 % w/w

SMILES: Cc1c(C(=O)NN2CCCCC2)nn(-c2ccc(Cl)cc2Cl)c1-c1ccc(Cl)cc1 [amorphous, N-piperidino-5-(4-chlorophenyl)-1-(2,4-dichlorophenyl)-4-methyl-3-pyrazolecarboxamide]
- order of intrinsic dissolution [3]: amorphous >Form C >Form I
